Assay: gradient 5% acetonitrile 3 min, to 50% in 2 min, to 85% in 15 min, held 3 min, 100 µL/min
Details: column: Zorbax Extend-C18 2.1 x 50 mm; eluents: water / acetonitrile, 0.1% formic acid
Method in brief: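 In both positive and negative ionization mode, a quadrupole time-of-flight mass spectrometer coupled to HPLC analyzed pure standards run in mixtures of ~100 molecules. The Zorbax Extend-C18 column (2.1 × 50 mm, 1.8 μm) was operated at 100 μL/min with water and acetonitrile, each containing 0.1% formic acid. The dead volume was 40 μL and the dwell volume 900 μL. Retention time came from adduct peaks that were computationally picked and individually inspected by hand.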

Compound	RP-LC retention time [s]
CCOC(=O)c1c(C)n(C)c2ccc(OCC(O)CN3CCCCC3)cc12 (centres undefined)	643
O=C(Cn1nc2c3ccc(F)cc3ncn2c1=O)Nc1ccc2c(c1)OCO2	707
Cc1ccc(NC(=O)Cn2nc3nc(N4CCOCC4)ccn3c2=O)cc1F	675
Cc1ccccc1NS(=O)(=O)c1cc(-c2[nH]ncc2C(=O)N(C)C)oc1C	673
CCOC(=O)Nc1ccc2c(c1)N(CCC(C)C)C(=O)C(C)(C)CO2	1070
O=C(O)Cc1sc(Nc2ccc(Br)cc2)nc1-c1ccccc1	1020
CN1C(=O)Cc2cc(NC(=O)CN3C(=O)c4ccccc4C3=O)ccc21	628
Cc1cc2c(cc1S(=O)(=O)N1CCCC1C(=O)N1CCN(C3CCCCC3)CC1)OCC(=O)N2 (centres undefined)	584
CCCS(=O)(=O)N1CC(=O)N(c2cccc(Cl)c2C)C(C)(C(=O)NC2CCCCC2)C1 (centres undefined)	1010
O=C(CCC1CCCN(S(=O)(=O)c2ccccc2F)C1)NCCc1ccccc1 (centres undefined)	952
Cc1nn(-c2ccccc2)cc1C(=O)N1CCC(CC(=O)NCCc2c[nH]c3ccccc23)CC1	751
Cn1nc(C(=O)Nc2ccc(S(N)(=O)=O)cc2)ccc1=O	582
COc1ccc(-c2noc(-c3nn(-c4ccc(C)c(C)c4)ccc3=O)n2)cc1OC	886
CCCN1CCN(c2cc(C(=O)O)c3cc(NS(=O)(=O)c4cc(F)ccc4C)ccc3n2)CC1	627
Cc1ccc2oc(N3CCCN(C(=O)c4ccc(-c5noc(C(C)C)n5)cc4)CC3)nc2n1	664
O=c1c2cc(-c3ccc(F)cc3)nn2ccn1Cc1nc(-c2cccc(F)c2)no1	1060
CC1(C)COCN1S(=O)(=O)c1ccc(C(=O)Nc2nnc(-c3cccs3)o2)cc1	750
COc1ccc(OC)c(S(=O)(=O)N2CCCC(C(=O)NC3CC3)C2)c1 (centres undefined)	710
CN1C(=O)c2cccnc2Sc2cc(NC(=O)C3CCCCC3)ccc21	828
COCCN(Cc1ccc(F)cc1)Cc1cc(=O)c2cc(F)ccc2[nH]1	815
CCn1cnc(S(=O)(=O)N2CCC(C(=O)NCc3ccc(Br)cc3)CC2)c1	747
COc1cccc(N2CCN(C(=O)Cc3csc4nc(-c5ccccc5)cn34)CC2)c1	833
COc1ccc(-n2c(=O)c(C(=O)Nc3ccccc3Cl)c(O)c3cccnc32)cc1	1270

Compound	RP-LC retention time [s]
COc1ccc(-n2nc(C(N)=O)c(=O)cc2OC)cc1	581
CCOC(=O)Nc1nc(CC(=O)NCCc2c[nH]c3ccccc23)cs1	680
O=S(=O)(c1ccc2nc(N3CCN(c4ccccc4F)CC3)ccc2c1)N1CCCCC1	1160
COc1cc(OC)c(NC(=O)Cn2nc(C(=O)N3CCCC3)c3ccccc32)cc1Cl	897
CC(C)CN1CCn2cc(S(=O)(=O)Nc3ccccc3F)cc2C1=O	1320
CNC(=O)c1cc(COc2nnc(Nc3ccc(Cl)cc3)c3ccoc23)ccn1	749
CN(C)c1ccc(CNC(=O)C2CCN(c3cc(N4CCSCC4)ncn3)CC2)cc1	579
COCC(=O)NC1CCC12CCN(Cc1ccc(C)o1)CC2 (centres undefined)	583
O=C(NCC1CCOCC1)Nc1ccccc1Br	740
Cc1cc(C)n(-c2ncnc3c2cnn3Cc2ccccc2)n1	1240
CSc1ccccc1NC(=O)c1nnn(-c2nc3c(s2)CCCC3)c1C	972
Cc1ccc(CN2CCC(CNC(=O)Cn3c(=O)c(C)nc4cc(C)c(C)cc43)C2)cc1 (centres undefined)	638
Cn1ncc2c(N3CCOCC3)nc(C(=O)NCc3cccs3)nc21	686
COCC1(O)CCOC2(CCN(Cc3ccc(C)cc3)CC2)C1 (centres undefined)	556
Cc1cc(C)n2c(Nc3ccccc3)c(-c3cccc(Cl)c3)nc2n1	1130
Cc1cccc(NC(=O)N2CCC(N3CCN(Cc4ccccn4)C(=O)C3=O)CC2)c1	610
Cc1ccccc1CNC(=O)C1(C)CCCN(C(=O)NCCc2ccccc2)C1 (centres undefined)	897
COCCN1C(=O)CCc2cc(NS(=O)(=O)c3cccc4nsnc34)ccc21	716
O=C(CCCn1c(=O)c2cccn2c2ccc(F)cc21)N1CCN(c2ccccn2)CC1	635
O=C1CCCC1C(=O)Nc1ccc2ccccc2c1 (centres undefined)	884
Cc1ccc(N2C(=O)CN(S(C)(=O)=O)CC2(C)C(=O)NCc2ccccc2)c(C)c1 (centres undefined)	838
COc1ccc2[nH]cc(CCN3CC(C(=O)Nc4nnc(C(C)(C)C)s4)CC3=O)c2c1 (centres undefined)	744
Cn1cc(S(=O)(=O)N2CCC(C(=O)N3CCc4ccccc4C3)CC2)cc1C(=O)N1CCCC1	782

Compound	RP-LC retention time [s]
CNC(=O)[C@@H]1CN(C(=O)c2cccc(Br)c2)C[C@H]1CO	586
O=C(NCCc1c[nH]c2ccccc12)C1CC(=O)N(Cc2ccccc2)C1 (centres undefined)	736
CC(C)(C)c1ccc(S(=O)(=O)N2CCc3nc[nH]c3C2)cc1	683
Cc1oc(C2CCN(C(=O)Nc3ccc(Br)cc3)CC2)nc1C(=O)N(C)C	759
CC(C)(CO)NC(=O)Cc1ccc(NS(=O)(=O)c2ccccc2Br)cc1	664
CCOc1ccc(NC(=O)N2CCC(c3nc(C(=O)N4CCOCC4)c(C)o3)CC2)cc1	704
CC(NC(=O)C1CCN(c2cnn(Cc3ccccc3)c(=O)c2)CC1)c1cccs1 (centres undefined)	789
Cc1ccc2nc(C(=O)N3CCC(C)CC3)cc(Nc3ccc(N(C)C)cc3)c2c1	745
O=C(CC1OC(=O)c2ccccc21)c1ccc(Br)cc1 (centres undefined)	905
CCc1ccc(NC(=O)C2CCc3nc(N4CCOCC4)ncc3C2)cc1 (centres undefined)	835
CN1C(=O)c2cccnc2Sc2cc(NC(=O)Cc3ccccc3Cl)ccc21	812
O=C(c1cn(-c2cc(N3CCSCC3)ncn2)cn1)N1CCCCC1	789
Cc1ccc(C2Cn3nc(-c4nc(-c5ccccc5)no4)cc3CO2)cc1 (centres undefined)	1260
O=C(c1cc(-c2ccc(F)c(F)c2)on1)N1CCC(Cn2cccn2)CC1	797
CCc1nnc(-c2ccc3ccn(CC(=O)NCc4ccc(N(C)C)cc4)c3c2)o1	640
Cc1c(C(=O)C(=O)NCc2ccccn2)c2ccccc2n1C	625
COc1ccc(NC(=O)Nc2c(-c3cccc(C)c3)nc3ccccn23)cc1	658
COc1ccccc1NC(=O)Cn1c(C)nc2c(sc3nc(-c4ccccc4)ccc32)c1=O	1090
CC(Cc1ccco1)NC(=O)Cn1c2ccccc2c2cnn(C)c(=O)c21 (centres undefined)	790
CCS(=O)(=O)NCc1ccc2c(c1)CCN2C(=O)c1ccc(Cl)cc1	829
CCCS(=O)(=O)N1CCCN(C2=NS(=O)(=O)C(c3ccccc3)=C2C)CC1	839
O=C(NC1CC(=O)N(c2ccc3c(c2)OCCO3)C1)c1ccc(-c2ccccc2)cc1 (centres undefined)	866
CC(C)NC(=O)N1CCc2c(c(-c3nc(-c4cccc(F)c4)no3)nn2C)C1	853

Compound	RP-LC retention time [s]
COCCN1C(=O)c2cccn2CC1CNC(=O)c1ccc(Cc2c(C)n[nH]c2C)o1 (centres undefined)	594
Cc1cc(C)cc(NC(=O)N2CCCC2c2nc(-c3ccccc3)no2)c1 (centres undefined)	922
O=C(CS(=O)Cc1cnn(-c2ccccc2)c1-n1cccc1)N1CCCCCC1 (centres undefined)	902
Cc1ccc(S(=O)(=O)CC(=O)Nc2nc(-c3ccc4c(c3)OCCO4)cs2)cc1	935
CCN1C(=O)C(CC(=O)NC2CCCCCC2)Sc2ncccc21 (centres undefined)	804
COc1ccc2c(c1)C1(CCN(C(=O)Cc3ccc(C)cc3)C1)C(=O)N2C (centres undefined)	854
O=C(Nc1cnc(-c2ccc(Cl)cc2)nc1)C1CCCO1 (centres undefined)	910
CCN(CC)S(=O)(=O)c1cccc(-c2nc(-c3ccc(C)cc3)no2)c1	1320
CCOc1ccccc1-c1noc(Cn2c(=O)n(C(C)CC)c(=O)c3ccccc32)n1 (centres undefined)	1140
CN(CC1CCOCC1)C(=O)Nc1cccc(Cl)c1	750
O=C(Nc1cccc(-c2noc(C3CC3)n2)c1)c1n[nH]c2c1CCCC2	941
Cn1nnc2ccc(-c3noc(-c4ccccc4)n3)cc21	985
COC1CCOC2(CCN(C(=O)c3sccc3C)CC2)C1 (centres undefined)	732
CCCC(NC(=O)c1cc(F)cc(F)c1)C(=O)Nc1nc2ccccc2[nH]1 (centres undefined)	733
O=C(NC1CCCC1)c1nnc(-c2ccc(S(=O)(=O)N3CCCCC3)cc2)o1	960
COc1cc(OC)c(NC(=O)Nc2c(-c3ccccc3)nc3ccccn23)cc1Cl	682
CC1=C(c2ccc(F)cc2)S(=O)(=O)N=C1N1CCCN(C(=O)CC(C)(C)C)CC1	856
Cc1nc2cc(-c3noc(-c4ccc(Cl)s4)n3)ccc2o1	1230
CCn1nc(C(=O)Nc2nc3c(SC)cccc3s2)cc1C	994
CCn1c(=O)c(NCc2cc(F)ccc2F)nc2ccncc21	568
